Results taken from patent publication US20230364118A1, “RIBITOL TREATMENT” (priority 2020, published 2023).
Where two headings read alike, the source gives them in different places.

What was measured:
[1] = PK comparison QD, BID, TID oral dosing; assay type: in vivo; details: CD-1, mouse, plasma; for AUC(0-inf) / Cmax / half-life: po, 0.3 g/kg
Experimental: Each regimen was studied in 3 male and 3 female CD-1 mice. PK of ribitol following the final dose was compared among these three regimens. The first and the second subsets of mice receiving QD and BID of ribitol were bled at 0.5, 1, 2, 4, and 6 hours post QD dosing and the second dose of the BID dosing, respectively; the third subset of mice receiving TID of ribitol were bled at 0.5, 1, 2, 4 and 12 hours post the third dose.

[2] = In vitro permeability study; assay type: in vitro ADME; details: human, Caco-2, 300 μg/mL
Experimental: (§1) The absorption of ribitol was evaluated in Caco-2 cells at a concentration of 300 μg/mL. The apparent permeability values for apical (A)-to-basal (B) and B-to-A transport were <0.4 and […], respectively.

Caco-2 cells = test: In vitro permeability study; assay type: in vitro ADME
Experimental: as §1

[3] = Metabolic stability in liver microsomes, cytosol, hepatocytes; assay type: in vitro ADME
Experimental: Metabolic stability of ribitol was conducted in liver microsomes, cytosol, and primary hepatocytes, from CD-1 mouse, Sprague-Dawley rat, Gottingen minipig, and human at a concentration of ribitol of 10 μM.

[4] = Plasma protein binding, rapid equilibrium dialysis; assay type: in vitro ADME
Experimental: Protein binding studies with ribitol were performed in vitro using plasma from CD-1 mouse, Sprague-Dawley rat, Gottingen minipig, and human at 75 μg/mL (0.49 mM) and 200 μg/mL (1.31 mM) using the rapid equilibrium dialysis method. The percent of ribitol bound to plasma was approximately similar between the two concentrations tested in all species.

Single oral dose PK [5] = assay type: in vivo, CD-1 mouse
Experimental: The PK of ribitol was studied in male and female CD-1 mice following two oral doses at 0.3 and 1.0 g/kg (FIG. 10). Blood samples were collected serially up to 24 hours post dose.

Single oral dose PK [6] = assay type: in vivo; details: Bama, minipig, plasma
Experimental: The PK of ribitol was studied in 3 male and 3 female Bama minipigs following escalating PO dose levels using the same animals with a 48 hour washout period at 0.3 g/kg (Day 1) (FIG. 11A), 1.0 g/kg (Day 3) (FIG. 11B) and 0.3 g/kg TID (Day 16) (FIG. 11C). On Days 1 and 3, blood samples were collected at 0, 0.5, 1, 2, 4, 8, 12, and 24 hours post dose from all animals. On Day 16, blood samples were collected from all animals at 0, 0.5, 1, 2, 4, 6 (pre-second dose), 6.5, 7, 8, 10, 12 (pre-third dose), 12.5, 13, 14, 16, and 24 hours post dose.

[7] = female, PO 0.3 g/kg/dose BID, last dose
[8] = female, PO 0.3 g/kg/dose TID, last dose
[9] = male, PO 0.3 g/kg/dose BID, last dose
[10] = male, PO 0.3 g/kg/dose TID, last dose
[11] = CD-1, mouse, liver cytosol, Cytosol
[12] = CD-1, mouse, liver microsomes, Microsomes
[13] = CD-1, mouse, primary hepatocytes, Hepatocytes
[14] = Gottingen, minipig, liver cytosol, Cytosol
[15] = Gottingen, minipig, liver microsomes, Microsomes
[16] = Gottingen, minipig, primary hepatocytes, Hepatocytes
[17] = Sprague-Dawley, rat, liver cytosol, Cytosol
[18] = Sprague-Dawley, rat, liver microsomes, Microsomes
[19] = Sprague-Dawley, rat, primary hepatocytes, Hepatocytes
[20] = human, liver microsomes, Microsomes
[21] = human, primary hepatocytes, Hepatocytes
[22] = CD-1, mouse, plasma, single PO 0.3 g/kg, female
[23] = CD-1, mouse, plasma, single PO 0.3 g/kg, male
[24] = CD-1, mouse, plasma, single PO 1.0 g/kg, female
[25] = CD-1, mouse, plasma, single PO 1.0 g/kg, male

With `OC[C@@H](O)[C@@H](O)[C@@H](O)CO` [ribitol, (2R,3s,4S)-Pentane-1,2,3,4,5-pentol] the Tmax ([1]; PO 0.3 g/kg QD, female) was 0.5 h, the Tmax ([1]; PO 0.3 g/kg QD, male) was 0.5 h and the AUC(0-inf) ([1]; female, PO 0.3 g/kg QD) was 47100 ng·h/mL. The Cmax ([1]; female, PO 0.3 g/kg QD) was 33.3 µg/mL, the half-life ([1]; female, PO 0.3 g/kg QD) was 1.17 h and the AUC(0-inf) [1, 7] was 48300 ng·h/mL. For the same compound, the Cmax [1, 7] was 28.3 µg/mL, the half-life [1, 7] was 0.984 h and the AUC(0-inf) [1, 8] was 40600 ng·h/mL. The Cmax [1, 8] was 43.9 µg/mL, the half-life [1, 8] was 0.53 h and the AUC(0-inf) ([1]; male, PO 0.3 g/kg QD) was 45200 ng·h/mL. It also gave a Cmax ([1]; male, PO 0.3 g/kg QD) of 34.2 µg/mL, a half-life ([1]; male, PO 0.3 g/kg QD) of 0.839 h and an AUC(0-inf) [1, 9] of 49600 ng·h/mL. For the same compound, the Cmax [1, 9] was 27.4 µg/mL, the half-life [1, 9] was 1.5 h and the AUC(0-inf) [1, 10] was 28200 ng·h/mL. It also gave a Cmax [1, 10] of 31.4 µg/mL, a half-life [1, 10] of 0.454 h and a Papp A→B at 300 μg/mL ([2]; read-out: apparent permeability A-to-B) of under 0.4 ×10⁻⁶ cm/s. The Papp B→A at 300 μg/mL ([2]; read-out: apparent permeability B-to-A) was under 0.1 ×10⁻⁶ cm/s, the P-gp substrate (Caco-2 cells) was “not a P-glycoprotein (P-gp) substrate” and the permeability class (Caco-2 cells) was “low permeability”. The CLint scaled at 10 μM [3, 11] was 4.75 mL/min/kg, the half-life at 10 μM [3, 11] was 9.63 h and the CLint scaled at 10 μM [3, 12] was under 29.3 mL/min/kg. The half-life at 10 μM [3, 12] was over 3.12 h, the CLint scaled at 10 μM [3, 13] was under 22.6 mL/min/kg and the half-life at 10 μM [3, 13] was over 6.07 h. For the same compound, the CLint scaled at 10 μM [3, 14] was 2.71 mL/min/kg, the half-life at 10 μM [3, 14] was 3.27 h and the CLint scaled at 10 μM [3, 15] was under 5.56 mL/min/kg. It also gave a half-life at 10 μM [3, 15] of over 3.12 h, a CLint scaled at 10 μM [3, 16] of under 9.16 mL/min/kg and a half-life at 10 μM [3, 16] of over 6.07 h. For the same compound, the CLint scaled at 10 μM [3, 17] was 4.83 mL/min/kg, the half-life at 10 μM [3, 17] was 4.3 h and the CLint scaled at 10 μM [3, 18] was under 13.3 mL/min/kg. For the same compound, the half-life at 10 μM [3, 18] was over 3.12 h, the CLint scaled at 10 μM [3, 19] was under 8.89 mL/min/kg and the half-life at 10 μM [3, 19] was over 6.07 h. For the same compound, the CLint scaled at 10 μM ([3]; human, liver cytosol, Cytosol) was 1.64 mL/min/kg, the half-life at 10 μM ([3]; human, liver cytosol, Cytosol) was 6.35 h and the CLint scaled at 10 μM [3, 20] was under 6.66 mL/min/kg. For the same compound, the half-life at 10 μM [3, 20] was over 3.12 h, the CLint scaled at 10 μM [3, 21] was under 5.28 mL/min/kg and the half-life at 10 μM [3, 21] was over 6.07 h. For the same compound, the “% Binding” value ([4]; 75 μg/mL (0.49 mM), CD-1 mouse plasma) was 44.6 ± 1.3%, the “% Binding” value ([4]; 75 μg/mL (0.49 mM), Gottingen minipig plasma) was 44.1 ± 1.0% and the “% Binding” value ([4]; 75 μg/mL (0.49 mM), Sprague-Dawley rat plasma) was 43.3 ± 3.4%. The “% Binding” value ([4]; 75 μg/mL (0.49 mM), human plasma) was 36.5 ± 1.8%, the “% Binding” value ([4]; 200 μg/mL (1.31 mM), CD-1 mouse plasma) was 42.5 ± 0.3% and the “% Binding” value ([4]; 200 μg/mL (1.31 mM), Gottingen minipig plasma) was 38.6 ± 2.4%. The “% Binding” value ([4]; 200 μg/mL (1.31 mM), Sprague-Dawley rat plasma) was 40.3 ± 0.5%, the “% Binding” value ([4]; 200 μg/mL (1.31 mM), human plasma) was 34.6 ± 0.3% and the fraction unbound ([4]; human plasma, 0.49 and 1.31 mM, range) was 0.635 to 0.654. For the same compound, the Tmax (Single oral dose PK [5]; CD-1, mouse, plasma, oral, mice, stated for FOB timepoint selection, read-out: Tmax) was about 1 h, the AUC(0-inf) (Single oral dose PK [5]; [22]) was 55900 ng·h/mL and the Cmax (Single oral dose PK [5]; [22]) was 55 µg/mL. For the same compound, the bioavailability (Single oral dose PK [5]; CD-1, mouse, plasma, single PO 0.3 g/kg, female, read-out: % F) was 30.9%, the half-life (Single oral dose PK [5]; CD-1, mouse, plasma, single PO 0.3 g/kg, female, read-out: T1/2 (converted)) was 1.31 h and the Tmax (Single oral dose PK [5]; CD-1, mouse, plasma, single PO 0.3 g/kg, female, read-out: Tmax) was 0.5 h. The AUC(0-inf) (Single oral dose PK [5]; [23]) was 41600 ng·h/mL, the Cmax (Single oral dose PK [5]; [23]) was 45.6 µg/mL and the bioavailability (Single oral dose PK [5]; CD-1, mouse, plasma, single PO 0.3 g/kg, male, read-out: % F) was 24.6%. It also gave a half-life (Single oral dose PK [5]; CD-1, mouse, plasma, single PO 0.3 g/kg, male, read-out: T1/2 (converted)) of 0.677 h, a Tmax (Single oral dose PK [5]; CD-1, mouse, plasma, single PO 0.3 g/kg, male, read-out: Tmax) of 0.5 h and an AUC(0-inf) (Single oral dose PK [5]; [24]) of 129000 ng·h/mL. It also gave a Cmax (Single oral dose PK [5]; [24]) of 124 µg/mL, a bioavailability (Single oral dose PK [5]; CD-1, mouse, plasma, single PO 1.0 g/kg, female, read-out: % F) of 22.1% and a half-life (Single oral dose PK [5]; CD-1, mouse, plasma, single PO 1.0 g/kg, female, read-out: T1/2 (converted)) of 1.17 h. The Tmax (Single oral dose PK [5]; CD-1, mouse, plasma, single PO 1.0 g/kg, female, read-out: Tmax) was 0.5 h, the AUC(0-inf) (Single oral dose PK [5]; [25]) was 173000 ng·h/mL and the Cmax (Single oral dose PK [5]; [25]) was 112 µg/mL. The bioavailability (Single oral dose PK [5]; CD-1, mouse, plasma, single PO 1.0 g/kg, male, read-out: % F) was 30.5%, the half-life (Single oral dose PK [5]; CD-1, mouse, plasma, single PO 1.0 g/kg, male, read-out: T1/2 (converted)) was 1.31 h and the Tmax (Single oral dose PK [5]; CD-1, mouse, plasma, single PO 1.0 g/kg, male, read-out: Tmax) was 0.5 h. It also gave a Tmax (Single oral dose PK [5]; both sexes, CD-1, mouse, plasma, po, read-out: Tmax after oral administration) of under 2 h, a bioavailability (Single oral dose PK [5]; both sexes, CD-1, plasma, po, mouse, range over doses and sexes, read-out: oral bioavailability) of 22.1 to 30.9% and a half-life (Single oral dose PK [5]; both sexes, CD-1, plasma, po, mouse, range, read-out: T1/2 following the oral dose) of 0.677 to 1.31 h. The AUC(0-inf) (Single oral dose PK [6]; single PO 0.3 g/kg, female) was 245000 ng·h/mL, the Cmax (Single oral dose PK [6]; single PO 0.3 g/kg, female) was 128 µg/mL and the half-life (Single oral dose PK [6]; single PO 0.3 g/kg, female) was 1.23 h. For the same compound, the bioavailability (Single oral dose PK [6]; single PO 0.3 g/kg, female, read-out: % F) was 65.3%, the Tmax (Single oral dose PK [6]; single PO 0.3 g/kg, female, read-out: Tmax) was 0.67 h and the AUC(0-inf) (Single oral dose PK [6]; single PO 0.3 g/kg, male) was 210000 ng·h/mL. For the same compound, the Cmax (Single oral dose PK [6]; single PO 0.3 g/kg, male) was 112 µg/mL, the half-life (Single oral dose PK [6]; single PO 0.3 g/kg, male) was 1.6 h and the bioavailability (Single oral dose PK [6]; single PO 0.3 g/kg, male, read-out: % F) was 55.9%. It also gave a Tmax (Single oral dose PK [6]; single PO 0.3 g/kg, male, read-out: Tmax) of 0.5 h, an AUC(0-inf) (Single oral dose PK [6]; single PO 1.0 g/kg, female) of 878000 ng·h/mL and a Cmax (Single oral dose PK [6]; single PO 1.0 g/kg, female) of 368 µg/mL. The half-life (Single oral dose PK [6]; single PO 1.0 g/kg, female) was 1.43 h, the bioavailability (Single oral dose PK [6]; single PO 1.0 g/kg, female, read-out: % F) was 70.2% and the Tmax (Single oral dose PK [6]; single PO 1.0 g/kg, female, read-out: Tmax) was 0.67 h. It also gave an AUC(0-inf) (Single oral dose PK [6]; single PO 1.0 g/kg, male) of 869000 ng·h/mL, a Cmax (Single oral dose PK [6]; single PO 1.0 g/kg, male) of 404 µg/mL and a half-life (Single oral dose PK [6]; single PO 1.0 g/kg, male) of 1.47 h. For the same compound, the bioavailability (Single oral dose PK [6]; single PO 1.0 g/kg, male, read-out: % F) was 69.4%, the Tmax (Single oral dose PK [6]; single PO 1.0 g/kg, male, read-out: Tmax) was 0.5 h and the Tmax (Single oral dose PK [6]; both sexes, po, read-out: Tmax after oral administration) was under 2 h. The bioavailability (Single oral dose PK [6]; both sexes, po, range over doses and sexes, read-out: oral bioavailability) was 55.9 to 70.2%.
